Reference: PubChem BioAssay AID1963981 (Molecular Pharmacology Branch, DTP, NCI, 2024)

System: 354836-022-R-J1-PDC multicell spheroid viability
Experiment: Anticancer human tumor 354836-022-R-J1-PDC patient-derived head and neck squamous cell carcinoma cell line growth inhibition [PI3K]
Details: for viability, T/C: stronger effect = lower value
Outline: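 Three cell types, namely tumor cells, endothelial cells and mesenchymal stem cells, formed each spheroid. Combinations with four PI3K inhibitors were screened at clinically achievable concentrations decreasing by half-log, and spheroid viability was recorded.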

[1] = curve of first compound, second compound 0.00316 µM
[2] = curve of first compound, second compound 0.01 µM
[3] = curve of first compound, second compound 0.0316 µM
[4] = curve of first compound, second compound 0.1 µM
[5] = curve of first compound, second compound 0.316 µM
[6] = curve of first compound, second compound 1 µM
[7] = second compound 0.00316 µM, first compound 0.0316 µM
[8] = second compound 0.00316 µM, first compound 0.1 µM
[9] = second compound 0.01 µM, first compound 0.0316 µM
[10] = second compound 0.01 µM, first compound 0.1 µM
[11] = second compound 0.0316 µM, first compound 0.0316 µM
[12] = second compound 0.0316 µM, first compound 0.1 µM
[13] = second compound 0.1 µM, first compound 0.0316 µM
[14] = second compound 0.1 µM, first compound 0.1 µM
[15] = second compound 0.316 µM, first compound 0.0316 µM
[16] = second compound 0.316 µM, first compound 0.1 µM
[17] = second compound 1 µM, first compound 0.0316 µM
[18] = second compound 1 µM, first compound 0.1 µM
[19] = second compound 0.00316 µM, first compound 0.316 µM
[20] = second compound 0.00316 µM, first compound 1 µM
[21] = second compound 0.00316 µM, first compound 3.16 µM
[22] = second compound 0.00316 µM, first compound 10 µM
[23] = second compound 0.01 µM, first compound 0.316 µM
[24] = second compound 0.01 µM, first compound 1 µM
[25] = second compound 0.01 µM, first compound 3.16 µM
[26] = second compound 0.01 µM, first compound 10 µM
[27] = second compound 0.0316 µM, first compound 0.316 µM
[28] = second compound 0.0316 µM, first compound 1 µM
[29] = second compound 0.0316 µM, first compound 3.16 µM
[30] = second compound 0.0316 µM, first compound 10 µM
[31] = second compound 0.1 µM, first compound 0.316 µM
[32] = second compound 0.1 µM, first compound 1 µM
[33] = second compound 0.1 µM, first compound 3.16 µM
[34] = second compound 0.1 µM, first compound 10 µM
[35] = second compound 0.316 µM, first compound 0.316 µM
[36] = second compound 0.316 µM, first compound 1 µM
[37] = second compound 0.316 µM, first compound 3.16 µM
[38] = second compound 0.316 µM, first compound 10 µM
[39] = second compound 1 µM, first compound 0.316 µM
[40] = second compound 1 µM, first compound 1 µM
[41] = second compound 1 µM, first compound 3.16 µM
[42] = second compound 1 µM, first compound 10 µM
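Also: spheroids exposed to agents for seven days before the viability read.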

## CC(=O)c1c(C)c2cnc(Nc3ccc(N4CCNCC4)cn3)nc2n(C2CCCC2)c1=O + COc1c(OCCCN2CCOCC2)ccc2c3n(c(=NC(=O)c4cnc(N)nc4)nc12)CCN3
[1]
  IC50: > 0.1 µM
[2]
  IC50: > 0.1 µM
[3]
  IC50: > 0.1 µM
[4]
  IC50: > 0.1 µM
[5]
  IC50: < 0.000316 µM
[6]
  IC50: < 0.000316 µM
Second compound 0.00316 µM, first compound 0.000316 µM
  viability, T/C: 115%
Second compound 0.00316 µM, first compound 0.001 µM
  viability, T/C: 116%
Second compound 0.00316 µM, first compound 0.00316 µM
  viability, T/C: 119%
Second compound 0.00316 µM, first compound 0.01 µM
  viability, T/C: 113%
[7]
  viability, T/C: 99.9%
[8]
  viability, T/C: 107%
Second compound 0.01 µM, first compound 0.000316 µM
  viability, T/C: 107%
Second compound 0.01 µM, first compound 0.001 µM
  viability, T/C: 121%
Second compound 0.01 µM, first compound 0.00316 µM
  viability, T/C: 93.7%
Second compound 0.01 µM, first compound 0.01 µM
  viability, T/C: 99.1%
[9]
  viability, T/C: 85.1%
[10]
  viability, T/C: 105%
Second compound 0.0316 µM, first compound 0.000316 µM
  viability, T/C: 78.7%
Second compound 0.0316 µM, first compound 0.001 µM
  viability, T/C: 92.1%
Second compound 0.0316 µM, first compound 0.00316 µM
  viability, T/C: 81.3%
Second compound 0.0316 µM, first compound 0.01 µM
  viability, T/C: 82.2%
[11]
  viability, T/C: 95.9%
[12]
  viability, T/C: 83.3%
Second compound 0.1 µM, first compound 0.000316 µM
  viability, T/C: 48.8%
Second compound 0.1 µM, first compound 0.001 µM
  viability, T/C: 54.3%
Second compound 0.1 µM, first compound 0.00316 µM
  viability, T/C: 57.6%
Second compound 0.1 µM, first compound 0.01 µM
  viability, T/C: 61.3%
[13]
  viability, T/C: 55.7%
[14]
  viability, T/C: 59.6%
Second compound 0.316 µM, first compound 0.000316 µM
  viability, T/C: 15.9%
Second compound 0.316 µM, first compound 0.001 µM
  viability, T/C: 16.5%
Second compound 0.316 µM, first compound 0.00316 µM
  viability, T/C: 12.5%
Second compound 0.316 µM, first compound 0.01 µM
  viability, T/C: 14.6%
[15]
  viability, T/C: 15.2%
[16]
  viability, T/C: 14.1%
Second compound 1 µM, first compound 0.000316 µM
  viability, T/C: 2.1%
Second compound 1 µM, first compound 0.001 µM
  viability, T/C: 1.43%
Second compound 1 µM, first compound 0.00316 µM
  viability, T/C: 1.73%
Second compound 1 µM, first compound 0.01 µM
  viability, T/C: 2.18%
[17]
  viability, T/C: 2.06%
[18]
  viability, T/C: 1.39%

## CCCS(=O)(=O)Nc1ccc(F)c(C(=O)c2c[nH]c3ncc(-c4ccc(Cl)cc4)cc23)c1F + CC(Nc1ccc2c(c1)OCCn1cc(N3C(=O)OCC3C(F)F)nc1-2)C(N)=O
[1]
  IC50: 6.95 µM
[2]
  IC50: 5.96 µM
[3]
  IC50: 6.55 µM
[4]
  IC50: 5.52 µM
[5]
  IC50: 4.22 µM
[6]
  IC50: 3.9 µM
[7]
  viability, T/C: 103%
[8]
  viability, T/C: 131%
[19]
  viability, T/C: 107%
[20]
  viability, T/C: 92.7%
[21]
  viability, T/C: 90.5%
[22]
  viability, T/C: 32.7%
[9]
  viability, T/C: 106%
[10]
  viability, T/C: 93.2%
[23]
  viability, T/C: 117%
[24]
  viability, T/C: 90.5%
[25]
  viability, T/C: 78.5%
[26]
  viability, T/C: 27.5%
[11]
  viability, T/C: 95.6%
[12]
  viability, T/C: 111%
[27]
  viability, T/C: 95.2%
[28]
  viability, T/C: 105%
[29]
  viability, T/C: 93%
[30]
  viability, T/C: 24.8%
[13]
  viability, T/C: 85.8%
[14]
  viability, T/C: 73.5%
[31]
  viability, T/C: 81.8%
[32]
  viability, T/C: 86.3%
[33]
  viability, T/C: 79.4%
[34]
  viability, T/C: 18.6%
[15]
  viability, T/C: 69.6%
[16]
  viability, T/C: 68.2%
[35]
  viability, T/C: 78.4%
[36]
  viability, T/C: 84.5%
[37]
  viability, T/C: 61.8%
[38]
  viability, T/C: 15.1%
[17]
  viability, T/C: 54%
[18]
  viability, T/C: 54.1%
[39]
  viability, T/C: 66.1%
[40]
  viability, T/C: 55.5%
[41]
  viability, T/C: 63.4%
[42]
  viability, T/C: 11.1%

## C#Cc1c(F)ccc2cc(O)cc(-c3ncc4c(N5CC6CCC(C5)N6)nc(OCC56CCCN5CC(F)C6)nc4c3F)c12 (centres undefined) + COc1c(OCCCN2CCOCC2)ccc2c3n(c(=NC(=O)c4cnc(N)nc4)nc12)CCN3
[1]
  IC50: > 10 µM
[2]
  IC50: > 10 µM
[3]
  IC50: > 10 µM
[4]
  IC50: 0.516 µM
[5]
  IC50: < 0.0316 µM
[6]
  IC50: < 0.0316 µM
[7]
  viability, T/C: 113%
[8]
  viability, T/C: 102%
[19]
  viability, T/C: 107%
[20]
  viability, T/C: 108%
[21]
  viability, T/C: 111%
[22]
  viability, T/C: 92.8%
[9]
  viability, T/C: 98%
[10]
  viability, T/C: 99%
[23]
  viability, T/C: 96.3%
[24]
  viability, T/C: 116%
[25]
  viability, T/C: 92%
[26]
  viability, T/C: 101%
[11]
  viability, T/C: 79.4%
[12]
  viability, T/C: 84.2%
[27]
  viability, T/C: 96.4%
[28]
  viability, T/C: 89.7%
[29]
  viability, T/C: 74.1%
[30]
  viability, T/C: 77.1%
[13]
  viability, T/C: 56.1%
[14]
  viability, T/C: 67.8%
[31]
  viability, T/C: 52.9%
[32]
  viability, T/C: 47.1%
[33]
  viability, T/C: 45.6%
[34]
  viability, T/C: 45.4%
[15]
  viability, T/C: 14.6%
[16]
  viability, T/C: 14%
[35]
  viability, T/C: 12.9%
[36]
  viability, T/C: 14.6%
[37]
  viability, T/C: 11.4%
[38]
  viability, T/C: 3.3%
[17]
  viability, T/C: 2.48%
[18]
  viability, T/C: 2.22%
[39]
  viability, T/C: 1.66%
[40]
  viability, T/C: 1.78%
[41]
  viability, T/C: 1.73%
[42]
  viability, T/C: 0.66%

## Cc1nc(NC(=O)N2CCCC2C(N)=O)sc1-c1ccnc(C(C)(C)C(F)(F)F)c1 (centres undefined)
Compound 0.0316 µM
  viability, T/C: 103% [middle of 8 runs]
Compound 0.1 µM
  viability, T/C: 100% [middle of 8 runs]
Compound 1 µM
  viability, T/C: 78.3% [middle of 8 runs]
Compound 3.16 µM
  viability, T/C: 59.7% [middle of 8 runs]
Compound 10 µM
  viability, T/C: 30.9% [middle of 8 runs]
Compound alone, run of 06/12/2023
  IC50: 4.49 µM [middle of 8 runs]

## C#Cc1c(F)ccc2cc(O)cc(-c3ncc4c(N5CC6CCC(C5)N6)nc(OCC56CCCN5CC(F)C6)nc4c3F)c12 (centres undefined) + Cc1nc(NC(=O)N2CCCC2C(N)=O)sc1-c1ccnc(C(C)(C)C(F)(F)F)c1
[3]
  IC50: > 10 µM
[4]
  IC50: > 10 µM
[5]
  IC50: > 10 µM
[6]
  IC50: > 10 µM
Curve of first compound, second compound 3.16 µM
  IC50: > 10 µM
Curve of first compound, second compound 10 µM
  IC50: < 0.0316 µM
[11]
  viability, T/C: 95%
[12]
  viability, T/C: 99.3%
[27]
  viability, T/C: 103%
[28]
  viability, T/C: 95.4%
[29]
  viability, T/C: 106%
[30]
  viability, T/C: 93.9%
[13]
  viability, T/C: 98.5%
[14]
  viability, T/C: 101%
[31]
  viability, T/C: 98.4%
[32]
  viability, T/C: 87.2%
[33]
  viability, T/C: 96%
[34]
  viability, T/C: 93.6%
[15]
  viability, T/C: 76%
[16]
  viability, T/C: 83.9%
[35]
  viability, T/C: 91.3%
[36]
  viability, T/C: 94.1%
[37]
  viability, T/C: 83.8%
[38]
  viability, T/C: 85.3%
[17]
  viability, T/C: 75.9%
[18]
  viability, T/C: 90.5%
[39]
  viability, T/C: 77.8%
[40]
  viability, T/C: 76.2%
[41]
  viability, T/C: 92.7%
[42]
  viability, T/C: 62.2%
Second compound 3.16 µM, first compound 0.0316 µM
  viability, T/C: 55.6%
Second compound 3.16 µM, first compound 0.1 µM
  viability, T/C: 60.7%
Second compound 3.16 µM, first compound 0.316 µM
  viability, T/C: 57.3%
Second compound 3.16 µM, first compound 1 µM
  viability, T/C: 63.4%
Second compound 3.16 µM, first compound 3.16 µM
  viability, T/C: 52.6%
Second compound 3.16 µM, first compound 10 µM
  viability, T/C: 55.7%
Second compound 10 µM, first compound 0.0316 µM
  viability, T/C: 34.2%
Second compound 10 µM, first compound 0.1 µM
  viability, T/C: 32.7%
Second compound 10 µM, first compound 0.316 µM
  viability, T/C: 35.6%
Second compound 10 µM, first compound 1 µM
  viability, T/C: 36.3%
Second compound 10 µM, first compound 3.16 µM
  viability, T/C: 36.6%
Second compound 10 µM, first compound 10 µM
  viability, T/C: 26%
